Source: patent US6472348B1, “Pyridone derivatives and herbicides” (Kumiai Chemical Industry Co., Ltd., priority 1996, dated 2002)

Tests used:
Assay type in all cases: in vivo
soybean (Gl) = assay: Test Example 6: crop plant selectivity by upland field soil treatment (soybean), phytotoxicity; set-up: scale not given here; conditions: dose 6.3 g ai/10a, 21st day after application
Protocol: (§1) (Test on Crop Plant Selectivity by Upland Field Soil Treatment)
(§2) In a plastic pot (surface area: 600 cm^2) filled with sand, soybean (Gl), Diaitaria ciliaris (Di), green foxtail (Se), Johnsongrass (So), pale smartweed (Po), slender amaranth (Am), common lambsquarters (Ch) and China jute (Ab) were sown and covered with soil. […] The plants were then cultured in a green house, and the evaluation of the herbicidal effects and phytotoxicity was conducted on the 21st day after the application in accordance with the standards as identified in Table 47. Symbol—represents “not tested”.

monochoria (Mo) = assay: Test Example 1: herbicidal effects by paddy field soil treatment; conditions: 100 g of the active ingredient per 10 ares, 21st day after the application, index 0-5 of Table 47;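 further: grade of growth control; 5 = at least 90%; 4 = 70 to 90%; 3 = 50 to 70%; 2 = 30 to 50%; 1 = 10 to 30%; 0 = under 10%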
Procedure, shortened: (§3)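 Herbicidal effect was scored against a graded standard 21 days after treatment. Seeds were sown in puddled, leveled paddy soil flooded to 3 cm depth, and the active ingredient was applied at 100 g per 10 ares before greenhouse culture.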

barnyardgrass (Ec) [1] = assay: as above; conditions: 100 g of the active ingredient per 10 ares, 21st day after the application, index 0-5 of Table 47
Procedure, shortened: as §3

bulrush (Sc) = assay: as above; conditions: 100 g of the active ingredient per 10 ares, 21st day after the application, index 0-5 of Table 47;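 further: grade of growth control; 5 = at least 90%; 4 = 70 to 90%; 3 = 50 to 70%; 2 = 30 to 50%; 1 = 10 to 30%; 0 = under 10%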
Procedure, shortened: as §3

green foxtail (Se) [2] = assay: Test Example 6: crop plant selectivity by upland field soil treatment (soybean), herbicidal effects; set-up: scale not given here; conditions: dose 6.3 g ai/10a, 21st day after application
Protocol: as §1, §2

[3] = system: common lambsquarters (Ch); assay: as above; set-up: scale not given here; conditions: dose 6.3 g ai/10a, 21st day after application
Protocol: as §1, §2

pale smartweed (Po) [4] = assay: as above; set-up: scale not given here; conditions: dose 6.3 g ai/10a, 21st day after application
Protocol: as §1, §2

China jute (Ab) [5] = assay: as above; set-up: scale not given here; conditions: dose 6.3 g ai/10a, 21st day after application
Protocol: as §1, §2

slender amaranth (Am) [6] = assay: as above; set-up: scale not given here; conditions: dose 6.3 g ai/10a, 21st day after application
Protocol: as §1, §2

[7] = system: common lambsquarters (Ch); assay: Test Example 2: herbicidal effects by upland field soil treatment; conditions: 100 g of the active ingredient per 10 ares, 21st day after the application, index 0-5 of Table 47;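 further: grade of growth control; 5 = at least 90%; 4 = 70 to 90%; 3 = 50 to 70%; 2 = 30 to 50%; 1 = 10 to 30%; 0 = under 10%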
From the text: (§4) (Test on Herbicidal Effects by Upland Field Soil Treatment)

Digitaria ciliaris (Di) = assay: as above; conditions: 100 g of the active ingredient per 10 ares, 21st day after the application, index 0-5 of Table 47;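 further: grade of growth control; 5 = at least 90%; 4 = 70 to 90%; 3 = 50 to 70%; 2 = 30 to 50%; 1 = 10 to 30%; 0 = under 10%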
From the text: as §4

pale smartweed (Po) [8] = assay: as above; conditions: 100 g of the active ingredient per 10 ares, 21st day after the application, index 0-5 of Table 47
From the text: as §4

barnyardgrass (Ec) [9] = assay: as above; conditions: 100 g of the active ingredient per 10 ares, 21st day after the application, index 0-5 of Table 47
From the text: as §4

rice flatsedge (Ci) [10] = assay: as above; conditions: 100 g of the active ingredient per 10 ares, 21st day after the application, index 0-5 of Table 47
From the text: as §4

slender amaranth (Am) [11] = assay: as above; conditions: 100 g of the active ingredient per 10 ares, 21st day after the application, index 0-5 of Table 47
From the text: as §4

corn (Ze) = assay: Test Example 7: crop plant selectivity by upland field soil treatment (corn), phytotoxicity; set-up: scale not given here; conditions: dose 6.3 g ai/10a, 21st day after application
Protocol: as §1
(§5) In a plastic pot (surface area: 600 cm^2) filled with sand, corn (Ze), green foxtail (Se), pale smartweed (Po), slender amaranth (Am), common lambsquarters (Ch) and China jute (Ab) were sown and covered with soil. […] The plants were then cultured in a green house, and the evaluation of the herbicidal effects and phytotoxicity was conducted on the 21st day after the application in accordance with the standards as identified in Table 47.

[12] = system: common lambsquarters (Ch); assay: Test Example 3: herbicidal effects by upland field foliage treatment; set-up: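 grade of growth control; 5 = at least 90%; 4 = 70 to 90%; 3 = 50 to 70%; 2 = 30 to 50%; 1 = 10 to 30%; 0 = under 10%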; conditions: 100 g of the active ingredient per 10 ares, evaluated on the 14th day after treatment
Procedure, shortened: (§6)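 Readout: visual herbicidal rating per defined standards, 14th day after treatment. Plants sown in sand (pot area 120 cm^2), soil-covered, greenhouse-cultured for 2 weeks prior to foliage application, then greenhouse-grown until scoring.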

Diaitaria ciliaris (Di) = assay: as above; set-up: scale not given here; conditions: 100 g of the active ingredient per 10 ares, evaluated on the 14th day after treatment
Procedure, shortened: as §6

pale smartweed (Po) [13] = assay: as above; set-up: scale not given here; conditions: 100 g of the active ingredient per 10 ares, evaluated on the 14th day after treatment
Procedure, shortened: as §6

barnyardgrass (Ec) [14] = assay: as above; set-up: scale not given here; conditions: 100 g of the active ingredient per 10 ares, evaluated on the 14th day after treatment
Procedure, shortened: as §6

rice flatsedge (Ci) [15] = assay: as above; set-up: scale not given here; conditions: 100 g of the active ingredient per 10 ares, evaluated on the 14th day after treatment
Procedure, shortened: as §6

slender amaranth (Am) [16] = assay: as above; set-up: scale not given here; conditions: 100 g of the active ingredient per 10 ares, evaluated on the 14th day after treatment
Procedure, shortened: as §6

green foxtail (Se) [17] = assay: Test Example 7: crop plant selectivity by upland field soil treatment (corn), herbicidal effects; set-up: scale not given here; conditions: dose 6.3 g ai/10a, 21st day after application
Protocol: as §1, §5

[18] = system: common lambsquarters (Ch); assay: as above; set-up: scale not given here; conditions: dose 6.3 g ai/10a, 21st day after application
Protocol: as §1, §5

pale smartweed (Po) [19] = assay: as above; set-up: scale not given here; conditions: dose 6.3 g ai/10a, 21st day after application
Protocol: as §1, §5

China jute (Ab) [20] = assay: as above; set-up: scale not given here; conditions: dose 6.3 g ai/10a, 21st day after application
Protocol: as §1, §5

slender amaranth (Am) [21] = assay: as above; set-up: scale not given here; conditions: dose 6.3 g ai/10a, 21st day after application
Protocol: as §1, §5

green foxtail (Se) [22] = assay: Test Example 4: crop plant selectivity by upland field soil treatment (cotton), herbicidal effects; set-up: scale not given here; conditions: dose 6.3 g ai/10 a, evaluated 21st day after application
Protocol: as §1
(§7) In a plastic pot (surface area: 600 cm^2) filled with sand, cotton (Go), Diaitaria ciliaris (Di), green foxtail (Se), pale smartweed (Po), slender amaranth (Am), common lambsquarters (Ch) and China jute (Ab) were sown and covered with soil. […] The plants were then cultured in a green house, and the evaluation of the herbicidal effects and phytotoxicity was conducted on the 21st day after the application in accordance with the standards as identified in Table 47. Symbol—represents “not tested”.

[23] = system: common lambsquarters (Ch); assay: as above; set-up: scale not given here; conditions: dose 6.3 g ai/10 a, evaluated 21st day after application
Protocol: as §1, §7

pale smartweed (Po) [24] = assay: as above; set-up: scale not given here; conditions: dose 6.3 g ai/10 a, evaluated 21st day after application
Protocol: as §1, §7

China jute (Ab) [25] = assay: as above; set-up: scale not given here; conditions: dose 6.3 g ai/10 a, evaluated 21st day after application
Protocol: as §1, §7

slender amaranth (Am) [26] = assay: as above; set-up: scale not given here; conditions: dose 6.3 g ai/10 a, evaluated 21st day after application
Protocol: as §1, §7

cotton (Go) = assay: Test Example 4: crop plant selectivity by upland field soil treatment (cotton), phytotoxicity; set-up: scale not given here; conditions: dose 6.3 g ai/10 a, evaluated 21st day after application
Protocol: as §1, §7

wheat (Tr) = assay: Test Example 5: crop plant selectivity by upland field soil treatment (wheat), phytotoxicity; set-up: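 grade of crop injury; 5 = at least 90%; 4 = 70 to 90%; 3 = 50 to 70%; 2 = 30 to 50%; 1 = 10 to 30%; 0 = under 10%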; conditions: 21st day after application
Protocol: as §1
(§8) In a plastic pot (surface area: 600 cm^2) filled with sand, wheat (Tr), Diaitaria ciliaris (Di), green foxtail (Se), pale smartweed (Po), slender amaranth (Am), common lambsquarters (Ch) and China jute (Ab) were sown and covered with soil. […] The plants were then cultured in a green house, and the evaluation of the herbicidal effects and phytotoxicity was conducted on the 21st day after the application in accordance with the standards as identified in Table 47. Symbol—represents “not tested”.

green foxtail (Se) [27] = assay: Test Example 5: crop plant selectivity by upland field soil treatment (wheat), herbicidal effects; set-up: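 grade of growth control; 5 = at least 90%; 4 = 70 to 90%; 3 = 50 to 70%; 2 = 30 to 50%; 1 = 10 to 30%; 0 = under 10%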; conditions: 21st day after application
Protocol: as §1, §8

[28] = system: common lambsquarters (Ch); assay: as above; set-up: scale not given here; conditions: 21st day after application
Protocol: as §1, §8

pale smartweed (Po) [29] = assay: as above; set-up: scale not given here; conditions: 21st day after application
Protocol: as §1, §8

slender amaranth (Am) [30] = assay: as above; set-up: scale not given here; conditions: 21st day after application
Protocol: as §1, §8

China jute (Ab) [31] = assay: as above; set-up: scale not given here; conditions: dose 6.3 g ai/10a, 21st day after application
Protocol: as §1, §8

SMILES	Phytotoxicity Gl (soybean (Gl))	Herbicidal effects Mo (monochoria (Mo))	Herbicidal effects Ec (barnyardgrass (Ec) [1])	Herbicidal effects Sc (bulrush (Sc))	Herbicidal effects Se (green foxtail (Se) [2])	Herbicidal effects Ch [3]	Herbicidal effects Po (pale smartweed (Po) [4])	Herbicidal effects Ab (China jute (Ab) [5])	Herbicidal effects Am (slender amaranth (Am) [6])	Herbicidal effects Ch [7]	Herbicidal effects Di (Digitaria ciliaris (Di))	Herbicidal effects Po (pale smartweed (Po) [8])	Herbicidal effects Ec (barnyardgrass (Ec) [9])	Herbicidal effects Ci (rice flatsedge (Ci) [10])	Herbicidal effects Am (slender amaranth (Am) [11])	Phytotoxicity Ze (corn (Ze))	Herbicidal effects Ch [12]	Herbicidal effects Di (Diaitaria ciliaris (Di))	Herbicidal effects Po (pale smartweed (Po) [13])	Herbicidal effects Ec (barnyardgrass (Ec) [14])	other results
CCOc1cc(-c2ccc(C(F)(F)F)n(C)c2=O)c(F)cc1Cl [1-150]	1	5	5	5	5	5	5	5	5	5	5	5	5	5	5	1	5	5	5	5	Herbicidal effects Ci (rice flatsedge (Ci) [15]): 5; Herbicidal effects Am (slender amaranth (Am) [16]): 5; Herbicidal effects Se (green foxtail (Se) [17]): 5; Herbicidal effects Ch [18]: 5; Herbicidal effects Po (pale smartweed (Po) [19]): 5; Herbicidal effects Ab (China jute (Ab) [20]): 5; Herbicidal effects Am (slender amaranth (Am) [21]): 5; Herbicidal effects Se (green foxtail (Se) [22]): 5; Herbicidal effects Ch [23]: 5; Herbicidal effects Po (pale smartweed (Po) [24]): 5; Herbicidal effects Ab (China jute (Ab) [25]): 5; Herbicidal effects Am (slender amaranth (Am) [26]): 5; Phytotoxicity Go (cotton (Go)): 0
CCCOc1cc(-c2ccc(C(F)(F)F)n(C)c2=O)c(F)cc1Cl [1-154]	1	5	5	5	5	5	5	5	5	5	5	5	5	5	5	1	5	5	5	5	Phytotoxicity Tr (wheat (Tr); dose 1.6 g ai/10a): 1; Herbicidal effects Se (green foxtail (Se) [27]; dose 1.6 g ai/10a): 5; Herbicidal effects Ch ([28]; dose 1.6 g ai/10a): 5; Herbicidal effects Po (pale smartweed (Po) [29]; dose 1.6 g ai/10a): 5; Herbicidal effects Am (slender amaranth (Am) [30]; dose 1.6 g ai/10a): 5; Herbicidal effects Ci (rice flatsedge (Ci) [15]): 5; Herbicidal effects Am (slender amaranth (Am) [16]): 5; Herbicidal effects Se (green foxtail (Se) [17]): 5; Herbicidal effects Ch [18]: 5; Herbicidal effects Po (pale smartweed (Po) [19]): 5; Herbicidal effects Ab (China jute (Ab) [20]): 5; Herbicidal effects Am (slender amaranth (Am) [21]): 5; Herbicidal effects Se (green foxtail (Se) [22]): 5; Herbicidal effects Ch [23]: 5; Herbicidal effects Po (pale smartweed (Po) [24]): 5; Herbicidal effects Ab (China jute (Ab) [25]): 5; Herbicidal effects Am (slender amaranth (Am) [26]): 5; Phytotoxicity Go (cotton (Go)): 0
CCC(C)Oc1cc(-c2ccc(C(F)(F)F)n(C)c2=O)c(F)cc1Cl (centres unmarked) [1-167]	1	5	5	5	5	5	5	5	5	5	5	5	5	5	5	0	5	5	5	5	Phytotoxicity Tr (wheat (Tr); dose 6.3 g ai/10a): 1; Herbicidal effects Se (green foxtail (Se) [27]; dose 6.3 g ai/10a): 5; Herbicidal effects Ch ([28]; dose 6.3 g ai/10a): 5; Herbicidal effects Po (pale smartweed (Po) [29]; dose 6.3 g ai/10a): 5; Herbicidal effects Ab (China jute (Ab) [31]): 5; Herbicidal effects Am (slender amaranth (Am) [30]; dose 6.3 g ai/10a): 5; Herbicidal effects Ci (rice flatsedge (Ci) [15]): 5; Herbicidal effects Am (slender amaranth (Am) [16]): 5; Herbicidal effects Se (green foxtail (Se) [17]): 5; Herbicidal effects Ch [18]: 5; Herbicidal effects Po (pale smartweed (Po) [19]): 5; Herbicidal effects Ab (China jute (Ab) [20]): 5; Herbicidal effects Am (slender amaranth (Am) [21]): 5; Herbicidal effects Se (green foxtail (Se) [22]): 5; Herbicidal effects Ch [23]: 5; Herbicidal effects Po (pale smartweed (Po) [24]): 5; Herbicidal effects Ab (China jute (Ab) [25]): 5; Herbicidal effects Am (slender amaranth (Am) [26]): 5; Phytotoxicity Go (cotton (Go)): 1
